Results as given in patent publication US11479533B2, “Inhibitors of Rho associated coiled-coil containing protein kinase” (KADMON CORPORATION, LLC, priority 2017, dated 2022).

Columns and labels:
[1] = biological target: recombinant ROCK2 (amino acids 1-552) (Homo sapiens (Human), UniProt O75116); experiment: Z'-lyte kinase assay, ROCK2; assay type: biochemical
Method: Determination of compounds ROCK inhibitory activity in vitro (Z'lyte assay): recombinant ROCK1 (amino acids 1-535) and ROCK2 (amino acids 1-552) proteins were purchased from ThermoFisher Scientific. Compounds activities were measured by Z'-lyte kinase kit (ThermoFisher Scientific) and IC50s were calculated.
Compounds activities were measured by Z'-lyte kinase kit (ThermoFisher Scientific). […] IC50s were calculated using the GraphPad Prism software with kinase activities data that were collected from 9 points serial dilution of compounds treatment. The ROCK inhibition in A7R5 cells and NIH3T3 (Acta2-Luc) cells was performed as described above.
The percent inhibition rate was calculated by normalizing the kinase activity value obtained with compound treatment against DMSO control value and then applied to the equation, […]. IC50's were calculated using the nonlinear regression curve fit function of the GraphPad Prism software with kinase activities data measured with 9 points 2-fold serial dilution of compounds treatment.

[2] = tested on: ppMlc (T18/S19) levels in A7R5 cells; experiment: A7R5 in-cell ELISA assay (ppMlc); assay type: cell-based, rat; conditions: Rattus norvegicus, A7R5, A7R5 cells, Table 2; read-out: pMLC IC50 (nM) A7R5
Method: Determination of compounds ROCK inhibitory activity in A7R5 cells: rat aortic smooth muscle cell line A7R5 cells were maintained and treated in DMEM medium with 10% of fetal bovine serum. Cells were seeded with density of 5,000 cells/well in 96-well plates for 24 hours and subsequently treated 90 min with testing compounds. Cells were then fixed and processed according to the In-Cell ELISA Colorimetric Detection Kit manual (Thermo Scientific).
A7R5 cells were treated with 9 points 2 fold serial dilution of compounds and ppMlc (T18/S19) levels were determined in order to calculate the cellular IC50s of the compounds.
An A7R5 in-cell ELISA assay was performed to determine ROCK inhibition of test articles. A7R5 cells were treated with 9 points 2-fold serial dilution of compounds and ppMlc (T18/S19) levels were determined to calculate cellular IC50 values of the compounds. […] A7R5 cells were treated with 9 points 2-fold serial dilution of compounds and ppMlc (T18/S19) levels were determined to calculate cellular IC50 values of the compounds using the nonlinear regression curve fit function of the GraphPad Prism software.

[3] = tested on: ACTA2-promoter-driven-luciferase in NIH3T3 cells; experiment: NIH3T3 Acta2-promoter driven-luciferase assay; assay type: cell-based; conditions: Mus musculus, plus TGFβ1, 24 hr, read-out: NIH3T3, Acta2-luc, IC50
Method: NIH3T3 cells Acta2-promoter driven-luciferase assay: A NIH3T3 cell line stably expressing a luciferase reporter driven by the human ACTA2 gene promoter (−1000-1 bp) was established (NIH3T3-Acta2-luciferase). The cells were plated to confluence and treated with the test compounds plus TGFβ1 for 24 hr. Cells were then lysed and luciferase activity was measured using the LightSwitch luciferase kit from Active Motif.
ROCK inhibitors can be effectively rank ordered by ACTA2-promoter-driven-luciferase reporter cell assay. NIH3T3 cells stably expressing ACTA2-promoter-driven-luciferase were applied to measure ROCK compounds functional IC50's in cells. Cells were plated in 96 well plates to confluence and treated with 9 points serial dilution of compounds in combination with TGFβ1 for 24 hr. Luciferase activities were measured and compound's IC50's were calculated using the nonlinear regression curve fit function of the GraphPad Prism software. Compounds of the invention gave in cell IC50's under 200 nM, see FIG. 1c.

recombinant ROCK2 (amino acids 1-552), sequence (O75116 1-552): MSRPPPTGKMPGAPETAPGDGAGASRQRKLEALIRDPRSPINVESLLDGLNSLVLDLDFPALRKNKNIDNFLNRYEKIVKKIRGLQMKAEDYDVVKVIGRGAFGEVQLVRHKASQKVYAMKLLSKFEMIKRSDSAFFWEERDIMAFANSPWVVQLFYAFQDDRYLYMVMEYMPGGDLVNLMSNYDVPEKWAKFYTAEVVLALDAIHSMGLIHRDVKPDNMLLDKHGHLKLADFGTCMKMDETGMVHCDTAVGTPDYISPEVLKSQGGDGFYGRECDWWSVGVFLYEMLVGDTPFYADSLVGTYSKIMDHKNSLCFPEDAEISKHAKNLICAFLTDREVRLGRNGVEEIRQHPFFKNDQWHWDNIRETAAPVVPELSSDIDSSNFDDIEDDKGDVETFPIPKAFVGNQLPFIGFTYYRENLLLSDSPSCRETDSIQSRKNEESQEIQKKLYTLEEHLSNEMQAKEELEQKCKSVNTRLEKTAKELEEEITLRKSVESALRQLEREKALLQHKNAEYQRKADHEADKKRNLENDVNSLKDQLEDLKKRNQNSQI

Row | IC50 [1] [nM] | IC50 [2] [nM] | inhibition at 0.5 µM ([1]; @ 0.5 μM, read-out: ROCK2 % inh (0.5 μM)) [%] | SMILES | IC50 [3] [nM]
1 | 5.3 | 152 |  | CNCCNC(C(=O)Nc1ccc(-c2cn[nH]c2)cc1)c1cccc(OC)c1 (stereo not drawn) [Example 26, N-(4-(1H-pyrazol-4-yl)phenyl)-2-(3-methoxyphenyl)-2-((2-(methylamino)ethyl)amino)acetamide] | 251
2 | 16 | 1580 |  | COCCCNC(C(=O)Nc1ccc(-c2cn[nH]c2)cc1)c1cccc(OC)c1 (stereo not drawn) [Example 36, N-(4-(1H-pyrazol-4-yl)phenyl)-2-(3-methoxyphenyl)-2-((3-methoxypropyl)amino)acetamide] | 1550
3 | 24 | 379 |  | CN[C@H](C(=O)Nc1ccc(-c2cn[nH]c2)cc1)c1ccc(Cl)cc1 [Example 64, (S)—N-(4-(1H-pyrazol-4-yl)phenyl)-2-(4-chlorophenyl)-2-(methylamino)acetamide] | 227
4 | 8.7 | 338 |  | COc1cccc(C(NCCCN(C)C)C(=O)Nc2ccc(-c3cn[nH]c3)cc2)c1 (stereo not drawn) [Example 38, N-(4-(1H-pyrazol-4-yl)phenyl)-2-((3-(dimethylamino)propyl)amino)-2-(3-methoxyphenyl)acetamide] | 1620
5 | 55 | 667 |  | CNC(C(=O)Nc1ccc(-c2cn[nH]c2)cc1)c1ccc(N(C)C)cc1 (stereo not drawn) [Example 31, N-(4-(1H-pyrazol-4-yl)phenyl)-2-(4-(dimethylamino)phenyl)-2-(methylamino)acetamide] | 1230
6 | 486 | > 5000 |  | CNC(C(=O)Nc1ccc(-c2cn[nH]c2)cc1)c1ccc2nc(C)[nH]c2c1 (stereo not drawn) [Example 35, N-(4-(1H-pyrazol-4-yl)phenyl)-2-(2-methyl-1H-benzo[d]imidazol-6-yl)-2-(methylamino)acetamide] | > 5000
7 | 4 | 69 |  | CCNC(C(=O)Nc1ccc(-c2cn[nH]c2)cc1)c1ccc(C)cc1 (stereo not drawn) [Example 11, N-(4-(1H-pyrazol-4-yl)phenyl)-2-(ethylamino)-2-(p-tolyl)acetamide] | 106
8 |  | 435 | 91 | CNC(C(=O)Nc1ccc(-c2cn[nH]c2)cc1)c1ccc(OC)c(F)c1 (stereo not drawn) [Example 23, N-(4-(1H-pyrazol-4-yl)phenyl)-2-(3-fluoro-4-methoxyphenyl)-2-(methylamino)acetamide] | 252
9 | 8.1 | 54 |  | COCCN(C)C(C(=O)Nc1cc(F)c(-c2cn[nH]c2)cc1OCCN(C)C)c1cccc(OC)c1 (stereo not drawn) [Example 51, N-(2-(2-(dimethylamino)ethoxy)-5-fluoro-4-(1H-pyrazol-4-yl)phenyl)-2-((2-methoxyethyl)(methyl)amino)-2-(3-methoxyphenyl)acetamide] | 101
10 | 31 | > 5000 |  | CNC(C(=O)Nc1ccc(-c2cn[nH]c2)cc1)c1cccc(C(=O)O)c1 (stereo not drawn) [Example 32, 3-(2-((4-(1H-pyrazol-4-yl)phenyl)amino)-1-(methylamino)-2-oxoethyl)benzoic acid] | > 5000
11 | 17 | 506 |  | COCCNC(C(=O)Nc1ccc(-c2cn[nH]c2)c(F)c1)c1cccc(OC)c1 (stereo not drawn) [Example 55, N-(3-fluoro-4-(1H-pyrazol-4-yl)phenyl)-2-((2-methoxyethyl)amino)-2-(3-methoxyphenyl)acetamide] | 601
12 | 37 | 977 |  | CCOCCNC(C(=O)Nc1ccc(-c2cn[nH]c2)cc1)c1cccc(OC)c1 (stereo not drawn) [Example 37, N-(4-(1H-pyrazol-4-yl)phenyl)-2-((2-ethoxyethyl)amino)-2-(3-methoxyphenyl)acetamide] | 2310
13 | 82 | 947 |  | CNC(C(=O)Nc1ccc(-c2cn[nH]c2)cc1)c1cccc(N(C)C)c1 (stereo not drawn) [Example 28, N-(4-(1H-pyrazol-4-yl)phenyl)-2-(3-(dimethylamino)phenyl)-2-(methylamino)acetamide] | 335
14 | 310 | > 5000 |  | CNC(C(=O)Nc1ccc(-c2cn[nH]c2)cc1)c1ccc(C(=O)OC)cc1 (stereo not drawn) [Example 34, methyl 4-(2-((4-(1H-pyrazol-4-yl)phenyl)amino)-1-(methylamino)-2-oxoethyl)benzoate] | > 5000
15 | 53 | 1360 |  | COc1cccc(C(NCc2cn[nH]c2)C(=O)Nc2ccc(-c3cn[nH]c3)cc2)c1 (stereo not drawn) [Example 45, 2-(((1H-pyrazol-4-yl)methyl)amino)-N-(4-(1H-pyrazol-4-yl)phenyl)-2-(3-methoxyphenyl)acetamide] | 1460
16 | 950 |  |  | CNCCN1CCCN(c2ccc(-c3cn[nH]c3)cc2)C(=O)C1c1cccc(OC)c1 (stereo not drawn) [Example 76, 1-(4-(1H-pyrazol-4-yl)phenyl)-3-(3-methoxyphenyl)-4-(2-(methylamino)ethyl)-1,4-diazepan-2-one] | 
17 | 17 | 106 |  | COc1cccc(C(NCCN2CCCC2)C(=O)Nc2ccc(-c3cn[nH]c3)cc2)c1 (stereo not drawn) [Example 52, N-(4-(1H-pyrazol-4-yl)phenyl)-2-(3-methoxyphenyl)-2-((2-(pyrrolidin-1-yl)ethyl)amino)acetamide] | 675
18 | 65 | 1680 |  | CNC(C(=O)Nc1ccc(-c2cn[nH]c2)cc1)c1ccc2nc(C)sc2c1 (stereo not drawn) [Example 27, N-(4-(1H-pyrazol-4-yl)phenyl)-2-(methylamino)-2-(2-methylbenzo[d]thiazol-6-yl)acetamide] | 699
19 | 400 | > 5000 |  | CNC(=O)c1ccc(C(NC)C(=O)Nc2ccc(-c3cn[nH]c3)cc2)cc1 (stereo not drawn) [Example 69, 4-(2-((4-(1H-pyrazol-4-yl)phenyl)amino)-1-(methylamino)-2-oxoethyl)-N-methylbenzamide] | > 5000
20 | 1.9 | 269 |  | CNC(=O)c1cccc(C(NC)C(=O)Nc2ccc(-c3cn[nH]c3)cc2)c1 (stereo not drawn) [Example 67, 3-(2-((4-(1H-pyrazol-4-yl)phenyl)amino)-1-(methylamino)-2-oxoethyl)-N-methylbenzamide] | 296
21 | > 1000 |  |  | COCCNC(C(=O)N(C)c1ccc(-c2cn[nH]c2)cc1)c1cccc(OC)c1 (stereo not drawn) [Example 49, N-(4-(1H-pyrazol-4-yl)phenyl)-2-((2-methoxyethyl)amino)-2-(3-methoxyphenyl)-N-methylacetamide] | 
22 | > 1000 |  |  | COc1cccc(C2C(=O)N(c3ccc(-c4cn[nH]c4)cc3)CCCN2CCN(C)C)c1 (stereo not drawn) [Example 75, 1-(4-(1H-pyrazol-4-yl)phenyl)-4-(2-(dimethylamino)ethyl)-3-(3-methoxyphenyl)-1,4-diazepan-2-one] | 
23 | > 1000 |  |  | COc1cccc(C2C(=O)N(c3ccc(-c4cn[nH]c4)cc3)CCCN2CC2CC2)c1 (stereo not drawn) [Example 74, 1-(4-(1H-pyrazol-4-yl)phenyl)-4-(cyclopropylmethyl)-3-(3-methoxyphenyl)-1,4-diazepan-2-one] | 
24 | 6.5 | 359 |  | CNCCCNC(C(=O)Nc1ccc(-c2cn[nH]c2)cc1)c1cccc(OC)c1 (stereo not drawn) [Example 42, N-(4-(1H-pyrazol-4-yl)phenyl)-2-(3-methoxyphenyl)-2-((3-(methylamino)-propyl)amino)acetamide] | 
25 | 7.7 | 134 |  | CNC(C(=O)Nc1cc(F)c(-c2cn[nH]c2)cc1OCCCN(C)C)c1cccc(OC)c1 (stereo not drawn) [Example 70, N-(2-(3-(dimethylamino)propoxy)-5-fluoro-4-(1H-pyrazol-4-yl)phenyl)-2-(3-methoxyphenyl)-2-(methylamino)acetamide] | 
26 | 15.4 | 355 |  | CNC(C(=O)Nc1ccc(-c2cn[nH]c2)cc1)c1ccc(OC)cc1 (stereo not drawn) [Example 9, N-(4-(1H-pyrazol-4-yl)phenyl)-2-(4-methoxyphenyl)-2-(methylamino)acetamide] | 
27 | 47 | 1490 |  | COCC(C)(C)NC(C(=O)Nc1ccc(-c2cn[nH]c2)cc1)c1cccc(OC)c1 (stereo not drawn) [Example 43, N-(4-(1H-pyrazol-4-yl)phenyl)-2-((1-methoxy-2-methylpropan-2-yl)amino)-2-(3-methoxyphenyl)acetamide] | 
